Publication PMC11926786, “Effect of Lipidation on the Structure, Oligomerization, and Aggregation of Glucagon-like Peptide 1” (Bioconjugate Chemistry, 2025)
“Also recorded” adds a separate entry of the source. Like-named read-outs stand apart in the source and are kept apart here. Values belong to the compound of their own block, whether it stands above or below them. *1 amine or outer side, *2 acyl side, *3 side chain or, on linkers, in order; H or OH if unused. Where a SMILES comes first, the peptide text is derived from it. Side-chain parts run from the residue outwards. The star is where a group is joined. γGlu = O=C(O)[C@H](CCC(=O)[*:2])N[*:1]; Palmitoyl = CCCCCCCCCCCCCCCC(=O)*

What was measured:
[1] = pH-dependent peptide solubility; type: physicochemical; conditions: from solid: ca. 0.5 mg lyophilized powder + 500 μL 25 mM phosphate, citrate or Tris; pH 2.5 to 8.5 in 0.5 steps; ca. 5 min, room temperature; 0.22 μm filtered; A280; soluble = concentrations above 50 μM, insoluble = not above 1 μM
Description: Figure 1D illustrates the solubility of each lipidated analogue and nonlipidated GLP-1-Am at different pH values. […] Isoelectric points (pI) of the analogues were determined using isoelectric focusing gel electrophoresis (Figure S1), and the determined values are given in Figure 1D in the column next to the solubility chart. […] It is interesting to note that these both form well-defined oligomeric states (see later sections), in which it is likely that the local chemical environment of the individual ionizable groups has changed. […] Although there have been attempts to rationalize the solubility and even develop solubility predictors for peptide/protein analogs containing non-natural amino acids and amino acid derivatives, the prediction of the solubility of lipidated analogues remains challenging due to its complexity.[43],[44]
The peptide solubility was tested in the individual buffers differing by 0.5 on the pH scale (i.e., pH 2.5, 3.0, 3.5, 4.0, ...). […] Subsequently, the concentration of the peptide was determined spectrophotometrically (Cary 60 UV–vis, Agilent Technologies) using the absorption at 280 nm and a theoretical extinction coefficient of 6990 M^–1 cm^–1 at 280 nm.

[2] = Isoelectric point by isoelectric focusing gel electrophoresis; type: physicochemical; conditions: printed in Figure 1D
Description: Figure 1D illustrates the solubility of each lipidated analogue and nonlipidated GLP-1-Am at different pH values. […] Isoelectric points (pI) of the analogues were determined using isoelectric focusing gel electrophoresis (Figure S1), and the determined values are given in Figure 1D in the column next to the solubility chart.

[3] = Far-UV CD of freshly dissolved samples, α-helical content from MRE222; type: physicochemical; conditions: 85 μM, 25 mM phosphate pH 7.5, room temperature, estimated from MRE222
[4] = Size-exclusion chromatography of oligomeric species; type: physicochemical; conditions: freshly prepared, 135 μM
Description: Analytical SEC was performed on an KTA FPLC system (GE Healthcare), using a Superdex 200 Increase 10/300 column (GE Healthcare). Samples were loaded using a 200 μL loop. Prior to loading, the samples were filtered through a 0.22 μm filter (Millex, PVDF Membrane) to avoid blocking the column by large aggregates. All samples were eluted at a flow rate of 0.75 mL min^–1 at room temperature, and UV absorbance detection at 280 nm through a 0.5 cm flow cell was used. A set of globular protein standards (GE Healthcare) was used to construct a calibration curve for the column, Figure S9.
Calibration curve for Superdex 200 Increase 10/300 column
Globular protein standards (GE Healthcare) were used for column calibration, (Fig. S9C). The gel phase
distribution parameter, Kav, of each protein standard was calculated as
where Ve is an elution volume of a protein standard, V0 is the void volume of the column (determined
used. The logarithm of the molecular weight of each protein standard was plotted against its Kav. A
linear regression of this plot was used to determine the molecular weight of any eluting species
For Stoke’s radius (RSt), a calibration plot of √−log(Kav) against
RSt and a linear regression was used.
Figure S9: Calibration of a Superdex 200 Increase 10/300 column. Calibrations on the molecular weight (A) and on the Stoke’s […]

[5] = Sedimentation velocity analytical ultracentrifugation of oligomeric species; type: physicochemical; conditions: freshly prepared samples, pH 7.5; determined by both AUC and SEC
Description: Sedimentation velocity experiments were performed using a Beckman Optima XL-I Analytical Ultracentrifuge equipped with an An-60 Ti rotor. Samples of 85 μM peptide concentration were freshly prepared before the measurement. After a 2 h temperature equilibration of samples in the centrifuge to 20 °C, the experiment was performed with centrifugation at 50,000 rpm. The interference sedimentation curves were collected as 150 scans (approximately 12 h run time) and fitted to a continuous c(s) distribution model implemented in the Sedfit program.[48],[52],[53] The sedimentation coefficient was corrected for the standard state of the water at 20 °C (s20,w). The molecular weight and relative amount of each detected species were calculated using the Sedfit program.

[6] = Aggregation behaviour and aggregate morphology of aged samples (TEM, far-UV CD); type: physicochemical; conditions: 25 mM phosphate
[7] = cited from earlier work
[8] = set-up: method as in 2 sources, one per row (each row's own in cited_ref): ref Venanzi et al., 20 ||| ref 20 = [20]; PMID 32780784; doi:10.1039/D0SM01011A; Venanzi M.; Savioli M.; Cimino R.; Gatto E.; Palleschi A.; Ripani G.; Cicero D.; Placidi E.; Orvieto F.; Bianchi E. A Spectroscopic and Molecular Dynamics Study on the Aggregation Process of; conditions: semaglutide without C-terminal amidation, cited from earlier work

isoelectric point (pI) [2]: 7.4
α-helix content [3]: 21%
SEC peak elution volume(s) ([4]; 25 mM phosphate pH 7.5, Superdex 200 Increase 10/300, 0.75 mL min–1, room temperature, A280): 19.2 mL
SEC n-mer ([4]; 25 mM phosphate pH 7.5, Superdex 200 Increase 10/300, calculated from calibration with globular protein standards): 1–2
Compound: CC[C@H](C)[C@H](NC(=O)[C@H](Cc1ccccc1)NC(=O)[C@H](CCC(=O)O)NC(=O)[C@H](CCCCN)NC(=O)[C@H](C)NC(=O)[C@H](C)NC(=O)[C@H](CCC(N)=O)NC(=O)CNC(=O)[C@H](CCC(=O)O)NC(=O)[C@H](CC(C)C)NC(=O)[C@H](Cc1ccc(O)cc1)NC(=O)[C@H](CO)NC(=O)[C@H](CO)NC(=O)[C@@H](NC(=O)[C@H](CC(=O)O)NC(=O)[C@H](CO)NC(=O)[C@@H](NC(=O)[C@H](Cc1ccccc1)NC(=O)[C@@H](NC(=O)CNC(=O)[C@H](CCC(=O)O)NC(=O)[C@H](C)NC(=O)[C@@H](N)Cc1cnc[nH]1)[C@@H](C)O)[C@@H](C)O)C(C)C)C(=O)N[C@@H](C)C(=O)N[C@@H](Cc1c[nH]c2ccccc12)C(=O)N[C@@H](CC(C)C)C(=O)N[C@H](C(=O)N[C@@H](CCCCN)C(=O)NCC(=O)N[C@@H](CCCNC(=N)N)C(=O)NCC(N)=O)C(C)C [GLP-1-Am]
pH range of solubility [1]: soluble at all pH values tested; also recorded: soluble over the entire range studied
oligomerization [5]: dimer and hexamer, less stable, detectable only by AUC, α-helical

Compound: CCCCCCCCCCCCCCCC(=O)N[C@@H](CCC(=O)NCCCC[C@H](NC(=O)[C@@H](N)Cc1c[nH]cn1)C(=O)N[C@@H](CCC(=O)O)C(=O)NCC(=O)N[C@H](C(=O)N[C@@H](Cc1ccccc1)C(=O)N[C@H](C(=O)N[C@@H](CO)C(=O)N[C@@H](CC(=O)O)C(=O)N[C@H](C(=O)N[C@@H](CO)C(=O)N[C@@H](CO)C(=O)N[C@@H](Cc1ccc(O)cc1)C(=O)N[C@@H](CC(C)C)C(=O)N[C@@H](CCC(=O)O)C(=O)NCC(=O)N[C@@H](CCC(N)=O)C(=O)N[C@@H](C)C(=O)N[C@@H](C)C(=O)N[C@@H](CCCNC(=N)N)C(=O)N[C@@H](CCC(=O)O)C(=O)N[C@@H](Cc1ccccc1)C(=O)N[C@H](C(=O)N[C@@H](C)C(=O)N[C@@H](Cc1c[nH]c2ccccc12)C(=O)N[C@@H](CCCNC(=N)N)C(=O)N[C@H](C(=O)N[C@@H](CCCNC(=N)N)C(=O)NCC(=O)N[C@@H](CCCNC(=N)N)C(=O)NCC(N)=O)C(C)C)[C@@H](C)CC)C(C)C)[C@@H](C)O)[C@@H](C)O)C(=O)O [GLP-1-Am (2, γ-Glu-palm)] (H-HK([γGlu-Palmitoyl])EGTFTSDVSSYLEGQAAREFIAWRVRGRG-NH2)
aggregation at pH 3 [6]: rapidly aggregate forming short fibril-like species with high β-sheet content; also recorded: analogue not soluble; (at pH 3, there is rapid formation of β-structure-rich fibrils)

Compound: liraglutide: marketed lipidated GLP-1 analogue, palmitic acid (C16) linked to Lys20 via a γ-glutamic acid spacer
half-life in vivo ([7]; pharmacokinetic data): 9 to 13 h

Compound: semaglutide: marketed lipidated GLP-1 analogue, stearic diacid (C18) lipidation at Lys20
oligomeric state [8]: equilibrium of monomers and dimers
aggregation on incubation ([8]; ref Venanzi et al., 20): aggregation was observed after several weeks of incubation
half-life in vivo ([7]; in vivo): 170 h

Compound: GLP-1
half-life in vivo ([7]; in vivo): circa 2 min
